According to patent publication US20100324138A1, “Lipoxin A4 Protection for Retinal Cells” (priority 2007, published 2010):
Where two headings read alike, the source gives them in different places.

Tests used:
ARPE-19 cells [1] = experiment: Apoptosis in RPE cells in which oxidative stress had not been induced (test whether lipoxin caused stress), Hoechst staining; assay type: cell-based
Method: (§1) ARPE-19 cells (L. M. Hjelmeland, ATCC #CRL-2302) were grown and maintained in DMEM-F12 medium supplemented with 10% FBS and incubated at 37° C. with a constant supply of 5% CO2. ARPE-19 cells are spontaneously transformed human retinal pigment epithelial cells that conserve cellular biological and functional properties. All chemicals were purchased from Sigma Chemical Co. (St. Louis, Mo.) unless otherwise indicated.
ARPE-19 cells growing in DMEM-F-12 medium for 72 h were serum starved for 8 h before induction of oxidative stress, as described in P. K. Mukherjee et al., “Photoreceptor outer segment phagocytosis attenuates oxidative stress-induced apoptosis with concomitant neuroportectin D1 synthesis,” PNAS, vol. 104, pp. 13158-13163 (2007). Oxidative stress was introduced by TNF-α (10 ng/ml) and H2O2 (600 uM) for 14 h and challenged with different concentrations of either lipoxin-A4 or lipoxin A4 epimer 15 (10 nM, 50 nM, and 100 nM; Calbiochem, Madison, Wis.), as indicated in FIG. 1. […] The apoptotic cell death was scored by Hoechst staining, as described in Mukherjee et al., 2007. The results were expressed as percentage inhibition of apoptosis by counting the Hoechst positive cells, and are shown in FIG. 1.

COX-2 promoter construct = experiment: Interleukin-1β induced COX-2 promoter construct (huCOX-2-LUC) luciferase assay in RPE cells; assay type: cell-based, human; settings: IL-1β 10 ng/ml, 14 h
Method: COX-2 is a proinflammatory protein that participates in RPE cell injury. ARPE-19 cells were grown over night in six well plates and then transfected with huCOX-2-LUC (−830) promoter construct (5 ug) for 24 h. Transfected cells were serum starved for 8 h before the addition of IL-1β (10 ng/ml). IL-1β treated cells were challenged with 100 nM, 500 nM, and 1000 nM concentrations of lipoxin A4 and lipoxin A4 epimer 15 for 14 h. Cells were then harvested, and luciferase assays were performed using luciferin as substrate.

ARPE-19 cells [2] = experiment: Inhibition of apoptosis induced by oxidative stress (TNF-α/H2O2) in RPE cells, Hoechst staining; assay type: cell-based, human; settings: TNF-α 10 ng/ml + H2O2 600 uM, 14 h, FIG. 1
Method: as §1
ARPE-19 cells growing in DMEM-F-12 medium for 72 h were serum starved for 8 h before induction of oxidative stress, as described in P. K. Mukherjee et al., “Photoreceptor outer segment phagocytosis attenuates oxidative stress-induced apoptosis with concomitant neuroportectin D1 synthesis,” PNAS, vol. 104, pp. 13158-13163 (2007). Oxidative stress was introduced by TNF-α (10 ng/ml) and H2O2 (600 uM) for 14 h and challenged with different concentrations of either lipoxin-A4 or lipoxin A4 epimer 15 (10 nM, 50 nM, and 100 nM; Calbiochem, Madison, Wis.), as indicated in FIG. 1. In initial experiments to test whether lipoxin caused stress, lipoxin A4 and lipoxin A4 epimer 15 were added to RPE cells in which oxidative stress had not been induced with TNF-α or H2O2. The apoptotic cell death was scored by Hoechst staining, as described in Mukherjee et al., 2007. The results were expressed as percentage inhibition of apoptosis by counting the Hoechst positive cells, and are shown in FIG. 1.

ARPE-19 cells [3] = experiment: Lipoxins and NPD1 combined effect on apoptosis induced by oxidative stress in RPE cells; assay type: cell-based, human; settings: NPD1 30 nM with lipoxin A4 or its analog 100 nM, 14 h; FIG. 2
Method: The growth of RPE cells, serum starvation, and induction of apoptosis were the same as described above in Example 1 and in Mukherjee et al., 2007. To test for a synergistic effect between lipoxin A4 and […] (NPD1), the oxidative-stressed RPE cells were treated with NPD1 (30 nM) and with lipoxin A4 or its analog (100 nM) for 14 h as indicated in FIG. 2. The percent apoptosis is expressed as described above in Example 1 as a percentage of the Hoechst positive cells.

[4] = 100, 500, 1000 nM, luciferase, FIG. 3

Compound	induction of apoptosis in RPE cells (ARPE-19 cells [1]; no oxidative stress (no TNF-α or H2O2), Hoechst positive cells, FIG. 1)	inhibition of IL-1β mediated induction of COX-2 promoter construct (COX-2 promoter construct; 100 nM (lowest inhibition)) [%]	inhibition of IL-1β mediated induction of COX-2 promoter construct (COX-2 promoter construct; 1000 nM)	inhibition of IL-1β mediated induction of COX-2 promoter construct (COX-2 promoter construct; [4])	inhibition of apoptosis in RPE cells under oxidative stress (ARPE-19 cells [2]; 100 nM)	inhibition of apoptosis in RPE cells under oxidative stress (ARPE-19 cells [2]; 10, 50, 100 nM)	effect of lipoxin combined with NPD1 on oxidative stress-induced apoptosis (ARPE-19 cells [3])	induction of apoptosis in RPE cells (ARPE-19 cells [1])
CCCCC[C@@H](O)/C=C/C=C\C=C\C=C\[C@@H](O)[C@@H](O)CCCC(=O)O (single isomer, unassigned; epimer 15) [lipoxin A4 epimer 15, 15-epi-lipoxin A4]	did not induce apoptosis	35	highest	inhibit IL-1β mediated induction of COX-2 promoter construct in RPE cells in a concentration-dependent manner	highest inhibition	able to inhibit apoptosis in RPE cells in a concentration-dependent manner		
CC/C=C\C[C@H](O)\C=C/C=C/C=C/[C@H](O)C/C=C\C/C=C\CCC(=O)O [NPD1, neuroprotectin D1, reference compound]							additive	
CCCCC[C@H](O)/C=C/C=C\C=C\C=C\[C@@H](O)[C@@H](O)CCCC(=O)O [lipoxin A4]		35	highest	inhibit IL-1β mediated induction of COX-2 promoter construct in RPE cells in a concentration-dependent manner	highest inhibition	able to inhibit apoptosis in RPE cells in a concentration-dependent manner	additive	did not induce apoptosis
